Reference: US20200140375A1, “COMPOSITIONS AND METHODS FOR TREATING CONDITIONS ASSOCIATED WITH ALTERED TCA CYCLE METABOLISM” (IMBRIA PHARMACEUTICALS, INC., priority 2017, published 2020)

Test: solubility in water
Assay type: physicochemical
From the text: The compound of formula (XIII) was made and analyzed.

solubility: 1200 mg/mL
Structure (SMILES): N[C@@H](COC(=O)CCC(=O)OCC(O)CO)C(=O)O (stereo partly shown) [formula (XIII)]
